System: C57BL/6 female mice
Assay: Bleomycin-induced pulmonary fibrosis and collagen accumulation
Format: in vivo
Details: 0.075 Unit/mouse intratracheal; most impressive 3 weeks after administration
Protocol: Animals were anesthetized, a median sternotomy was performed, and right heart perfusion was accomplished with calcium and magnesium-free phosphate-buffered saline (PBS). The heart and lungs were then removed en bloc. The right lung was frozen in liquid nitrogen and stored at −80° C. until used. Collagen content was determined by quantifying total soluble collagen using the Sircol Collagen Assay kit (Biocolor) according to the manufacturer's instructions. The data is expressed as the collagen content of the entire right lung.
The lungs were removed en bloc as described above, inflated at 25 cm pressure with PBS containing 0.5% low melting point agarose gel, fixed, embedded in paraffin, sectioned and stained. Hematoxylin and eosin, and Mallory's trichrome stains were performed in the Research Histology Laboratory of the Department of Pathology at the Yale University School of Medicine.
Bleomycin (0.075 Unit/mouse) or vehicle control were administered to C57BL/6 female mice as previously described by Jiang et al. (2004, J Clin Invest. 114:291-299).
Studies were also undertaken to determine if the biology of SEMA 7A that was defined using the Tg modeling system was also relevant to fibrotic responses that were induced by other stimuli. […]

In the case of Bleomycin, the “Pulmonary fibrosis and collagen accumulation” value was “significant increase”.

From patent publication US8642357B2, “Semaphorin 7A plays a critical role in TGF-β1-induced pulmonary fibrosis and alveolar destruction” (Yale University, priority 2009, dated 2014)
